Assay [1] relates to LC3B, p62, APP, Aβ1-42 in Retinoic Acid Differentiated SH-SY5Y Human Neuroblastoma Cell. Nature of the assay: Western Blot of Autophagy Markers LC3B and p62. As to conditions: 3-MA 5 mM together with the present invention; Aβ1-42 Oligomer 1 μM. The class given is cell-based. The protocol:
To extract the proteins, the cells were treated with RIPA Lysis Buffer (Bio-Rad), homogenized, and centrifuged (14,000 rpm, 10 minutes, 4° C.) to obtain the supernatant. 5% Stacking Gel (DW, 30% Acrylamide: Bisacrylamide, 1M Tris pH 6.8, 10% SDS, TEMED, 10% Ammonium Persulfate) and 12% Separating Gel (DW, 30% Acrylamide: Bisacrylamide, 1.5M Tris pH 8.8, 10% SDS, TEMED, 10% Ammonium Persulfate) were used for SDS-PAGE. Supernatant obtained by centrifugation was mixed with 4× Lacmmli Buffer (Bio-Rad) in 3:1 ratio and boiled at 95° C. for 10 minutes to denature the proteins. The mixture was cooled in an ice bath for 10 minutes and span down. Protein Size Marker (Bio-Rad) and each sample were added to Stacking Gel Well prepared in Mini-Protein II Dual-Slab Apparatus (Bio-Rad) and electrophoresed at 150 volt till all are precipitated to the bottom. Polyvinylidene Difluoride (PVDF) Membrane was moistened with methanol to activate and washed with Transfer Buffer (190 mM Glycine, 50 mM Tris-Base, 0.05% SDS, 20% Methanol). Whatman 3M Paper moistened with Transfer Buffer was stacked in Mini Trans-Bolt Cell (Bio-Rad) and run electricity at 200 mA for 60 minutes to deposit the membrane. After the deposition, the membrane was blocked with 5% Skim milk solution (in TBS-T: 10 mM Tris-Base pH 8.0, 150 mM NaCl, 0.1% Tween-20) on a Platform Shaker for 60 minutes. The primary antibodies were diluted in 5% Skim Milk in an optimum concentration for each, put on platform shaker at 4° C. for 16 hours. […] Finally, Membrane was added to SuperSignal™ West Femto Maximum Sensitivity Substrate (Thermo Scientific™) and expressed the color properly before the membrane was scanned using image analysis system and the amount of protein was calculated using Image J Software (NIH, USA). […]
(Immunoblotting shows a protein as a band on a membrane.)

Another assay deals with BACE-1 and Cathepsin B. The conditions noted are these: reported in J Gerontol a Biol Sci Med Sci 2015; J Urol. 2016; cited from earlier work.

Consider two compounds from US12485124B2, “Methods for treating alzheimer disease and for reducing amyloid beta formation” (ARIBIO CO., LTD., priority 2019, dated 2025).

Each structure is given as a SMILES string.

With `Cn1cnc(N)c2ncnc1-2` [3-MA, 3-Methyladenine], in assay [1], the “APP formation and Aβ1-42 accumulation” value is “APP formation and Aβ1-42 accumulation increased”; the “Autophagic Flux (LC3B-II/I Ratio)” value is listed as “Autophagic Flux (LC3B-II/I Ratio) increased by the present invention was reduced”; the “expression of p62” value is “expression of p62 reduced by the present invention increased”.
As for `CCCc1nn(C)c2c(=O)[nH]c(-c3cc(S(=O)(=O)N4CCN(C)CC4)ccc3OCC)nc12` [Sildenafil], in the assay on BACE-1 and Cathepsin B, the “BACE-1 and Cathepsin B expression” value was “suppressed BACE-1 and Cathepsin B expression”.
